Among the test systems are SF-268 CNS; HOP-62 NSCLC; UACC-257 melanoma; HCT-15 colon; UACC-62 melanoma; RPMI-8226 leukemia; PC-3 prostate; SF-295 CNS; K-562 leukemia; A498 renal.
What all share (experiment): growth of human tumour cells (NCI), 48 h

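In this assay, cells in 96-well plates receive the compound at five concentrations for 48 hours. Endpoints are linearly interpolated between the surrounding concentrations. Here, GI50 denotes the concentration required for 50% inhibition of growth. At the TGI there is no net growth.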

As for `C=C1[C@H](O)C[C@@H](C(C)C(O)CC=C(C)C)[C@@H](O)[C@@H]2C(C)=CC[C@@H]12` (stereo partly drawn), the GI50 is > 100 µM with SF-268 CNS; > 100 µM in the assay with HOP-62 NSCLC; > 100 µM with UACC-257 melanoma; > 100 µM with HCT-15 colon; 94.8 µM in the assay with UACC-62 melanoma; > 100 µM with RPMI-8226 leukemia. Also, the figures for the GI50 in the assay with PC-3 prostate, with SF-295 CNS and in the assay on K-562 leukemia were > 100 µM, > 100 µM and 53 µM, respectively. For the same compound, the TGI in the assay on SF-268 CNS, in the assay with HOP-62 NSCLC, with UACC-257 melanoma, with HCT-15 colon, with UACC-62 melanoma and with RPMI-8226 leukemia was > 100 µM in each case. In addition, the TGI with PC-3 prostate, with SF-295 CNS and with K-562 leukemia was > 100 µM throughout.
Turning to `COc1ccc(NC(=O)CC2SC(=Nc3ccc(Cl)cc3C)NC2=O)c([N+](=O)[O-])c1` (stereo not drawn), the TGI with A498 renal, with SF-268 CNS, with UACC-257 melanoma, in the assay on HCT-15 colon, with UACC-62 melanoma and in the assay on RPMI-8226 leukemia was > 100 µM throughout. Besides, the TGI with SF-295 CNS and in the assay on K-562 leukemia was > 100 µM each time.
Consider `O=S1c2ccccc2N=C(c2cccs2)CC1c1ccccc1O` (stereo not drawn), for which the TGI in the assay on A498 renal was 99.8 µM; with SF-268 CNS, > 100 µM; with HOP-62 NSCLC it was > 100 µM; with UACC-257 melanoma it was > 100 µM; in the assay with HCT-15 colon it was > 100 µM; in the assay on UACC-62 melanoma, > 100 µM. Besides, the TGI in the assay on RPMI-8226 leukemia, with SF-295 CNS and in the assay with K-562 leukemia was > 100 µM throughout.
As for `CCCCCCCN(CCCCCCC)C(=N)c1ccc(OC)c2ccccc12`, the GI50 is 0.419 µM with A498 renal; 1.49 µM with SF-268 CNS; 1.3 µM in the assay with HOP-62 NSCLC; 1.34 µM in the assay on UACC-62 melanoma; 1.35 µM in the assay on PC-3 prostate; 1.24 µM in the assay with SF-295 CNS. Moreover, the TGI with A498 renal turned out to be 1.8 µM; in the assay with SF-268 CNS it was 3.16 µM; in the assay on HOP-62 NSCLC, 2.79 µM; with UACC-62 melanoma, 2.77 µM; with PC-3 prostate, 2.78 µM; with SF-295 CNS, 2.72 µM.
As to `CC1O[C@@H]2CCCCC(=O)[C@]2(C)[C@H]1C` (stereo partly drawn), the TGI in the assay with HOP-62 NSCLC, with UACC-257 melanoma, with HCT-15 colon, in the assay on UACC-62 melanoma, in the assay on RPMI-8226 leukemia and in the assay on SF-295 CNS was > 100 µM in each case. Moreover, the TGI with K-562 leukemia was > 100 µM.
For `Cc1ccccc1C1SCc2nc3ccccc3n21` (stereo not drawn), the TGI with SF-268 CNS, in the assay with UACC-257 melanoma, in the assay on UACC-62 melanoma, in the assay on RPMI-8226 leukemia, in the assay on SF-295 CNS and in the assay with K-562 leukemia was > 100 µM in each case.
Regarding `COc1ccc(CC2OC3(CCCCC3)CC3CCCCN32)cc1` (stereo not drawn), the TGI in the assay on SF-268 CNS, in the assay with HOP-62 NSCLC, in the assay with UACC-257 melanoma, in the assay with HCT-15 colon, in the assay on UACC-62 melanoma and in the assay with RPMI-8226 leukemia was > 100 µM each time. In addition, the TGI with PC-3 prostate, in the assay with SF-295 CNS and with K-562 leukemia was > 100 µM throughout.
In the case of `O=C(NNC(=O)/C(=C/c1cccc([N+](=O)[O-])c1)NC(=O)c1ccccc1)Nc1ccc(Cl)cc1`, the TGI with A498 renal worked out at 23.4 µM; in the assay on SF-268 CNS, 29.6 µM; in the assay with HOP-62 NSCLC, 29.6 µM; in the assay on UACC-257 melanoma, 34.4 µM; with HCT-15 colon, 24.7 µM; in the assay with UACC-62 melanoma, 30.3 µM. Besides, the TGI with RPMI-8226 leukemia is 38.9 µM; in the assay with SF-295 CNS, 34.3 µM; in the assay on K-562 leukemia it was 36.1 µM.
As for `Cc1ccc(O)c(C(=O)/C=C/c2ccccc2)c1`, the TGI in the assay with SF-268 CNS, in the assay on HOP-62 NSCLC, in the assay on UACC-257 melanoma, in the assay on HCT-15 colon, in the assay on UACC-62 melanoma and in the assay on RPMI-8226 leukemia was > 100 µM throughout. For the same compound, the TGI in the assay with PC-3 prostate, in the assay with SF-295 CNS and in the assay with K-562 leukemia was > 100 µM each time.
Turning to `CC(C)(C)c1cc([Si](C)(C)C)c(C#N)c([Si](C)(C)C)c1`, the TGI with A498 renal, in the assay on SF-268 CNS, with HOP-62 NSCLC, in the assay on UACC-257 melanoma, in the assay with HCT-15 colon and in the assay with UACC-62 melanoma was > 100 µM throughout. In addition, the TGI with SF-295 CNS and in the assay on K-562 leukemia was > 100 µM throughout.
On to `Oc1ccc(Cl)cc1N=Nc1c(O)ccc2ccccc12`, for which the TGI with SF-268 CNS, with HOP-62 NSCLC, with UACC-257 melanoma, with HCT-15 colon, with UACC-62 melanoma and with RPMI-8226 leukemia was > 100 µM in each case. Further, the TGI in the assay on PC-3 prostate, in the assay on SF-295 CNS and in the assay on K-562 leukemia was > 100 µM throughout.
For `C#Cc1cccc(NC(=O)C2CCCCN2C(=O)CCl)c1` (stereo not drawn), the GI50 in the assay with SF-268 CNS was 21.1 µM; in the assay on HOP-62 NSCLC, > 82.5 µM; in the assay on UACC-257 melanoma, 26.2 µM; in the assay on HCT-15 colon, 9.61 µM; in the assay with UACC-62 melanoma, 18.9 µM; with RPMI-8226 leukemia it was 18 µM. For the same compound, the GI50 was 32.9 µM in the assay on PC-3 prostate, > 82.5 µM in the assay with SF-295 CNS and 15.3 µM in the assay with K-562 leukemia. The TGI with SF-268 CNS is 75.2 µM; with HOP-62 NSCLC, > 82.5 µM; with UACC-257 melanoma, > 82.5 µM; with HCT-15 colon, 23.4 µM; in the assay on UACC-62 melanoma it was > 82.5 µM; in the assay on RPMI-8226 leukemia, 51.5 µM. Also, the TGI with PC-3 prostate, in the assay on SF-295 CNS and in the assay on K-562 leukemia was > 82.5 µM in each case.
In the case of `O=c1[nH]c(C2CCCCC2)nc2ccc(Cl)cc12`, the TGI in the assay with SF-268 CNS, in the assay with UACC-257 melanoma, with HCT-15 colon, with UACC-62 melanoma, in the assay on RPMI-8226 leukemia and in the assay on SF-295 CNS was > 100 µM each time. In addition, in the assay with K-562 leukemia, the TGI is > 100 µM.
For the compound `O=Cc1cc2sc(C=O)cc2s1`, the TGI was 34.3 µM in the assay on A498 renal; > 100 µM with SF-268 CNS; > 100 µM in the assay on HOP-62 NSCLC; > 100 µM in the assay on UACC-257 melanoma; > 100 µM with HCT-15 colon; > 100 µM with UACC-62 melanoma. Moreover, the TGI in the assay on RPMI-8226 leukemia, in the assay with SF-295 CNS and with K-562 leukemia was > 100 µM in each case.

For the origin of these results see PubChem BioAssay (NCI).
